Reference: PubChem BioAssay (NCI)
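1) Cells in 96-well plates. 2) Compound, 48 h, 5 concentrations. 3) Linear interpolation between surrounding doses. 4) Unreached endpoint = highest concentration. GI50 is the concentration that inhibits growth by half. TGI: concentration producing complete growth inhibition.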

Key:
Assay in all cases: NCI-60 cell line screen, 48 h; in the data active = GI50 below about 0.43 µM; inactive = the rest
SK-OV-3 ovarian = system: SK-OV-3 ovarian
OVCAR-3 ovarian = system: OVCAR-3 ovarian
OVCAR-5 ovarian = system: OVCAR-5 ovarian
LOX IMVI melanoma = system: LOX IMVI melanoma
NCI-H522 lung = system: NCI-H522 lung
HOP-62 NSCLC = system: HOP-62 NSCLC
MDA-MB-231 breast = system: MDA-MB-231 breast
DU-145 prostate = system: DU-145 prostate
SF-539 CNS = system: SF-539 CNS
NCI-H460 lung = system: NCI-H460 lung
786-0 renal = system: 786-0 renal
MALME-3M melanoma = system: MALME-3M melanoma
HOP-92 NSCLC = system: HOP-92 NSCLC
HT29 colon = system: HT29 colon
NCI-H23 lung = system: NCI-H23 lung
SF-268 CNS = system: SF-268 CNS
COLO 205 colon = system: COLO 205 colon
PC-3 prostate = system: PC-3 prostate
RPMI-8226 leukemia = system: RPMI-8226 leukemia
UO-31 renal = system: UO-31 renal
U251 CNS = system: U251 CNS
UACC-62 melanoma = system: UACC-62 melanoma
MDA-MB-435 = system: MDA-MB-435
A498 renal = system: A498 renal
IGROV1 ovarian = system: IGROV1 ovarian
ACHN renal = system: ACHN renal
K-562 leukemia = system: K-562 leukemia
HS 578T breast = system: HS 578T breast
SW-620 colon = system: SW-620 colon
RXF 393 renal = system: RXF 393 renal
SK-MEL-28 melanoma = system: SK-MEL-28 melanoma
SNB-75 CNS = system: SNB-75 CNS
MOLT-4 leukemia = system: MOLT-4 leukemia
SK-MEL-5 melanoma = system: SK-MEL-5 melanoma
HCT-15 colon = system: HCT-15 colon
NCI-H226 lung = system: NCI-H226 lung
M14 melanoma = system: M14 melanoma
SNB-19 CNS = system: SNB-19 CNS
EKVX NSCLC = system: EKVX NSCLC
KM12 colon = system: KM12 colon
SF-295 CNS = system: SF-295 CNS
SK-MEL-2 melanoma = system: SK-MEL-2 melanoma
MCF7 breast = system: MCF7 breast
HL-60(TB) leukemia = system: HL-60(TB) leukemia
SN12C renal = system: SN12C renal
NCI/ADR-RES ovarian = system: NCI/ADR-RES ovarian
UACC-257 melanoma = system: UACC-257 melanoma
T-47D breast = system: T-47D breast
OVCAR-8 ovarian = system: OVCAR-8 ovarian
TK-10 renal = system: TK-10 renal
BT-549 breast = system: BT-549 breast
CAKI-1 renal = system: CAKI-1 renal
HCC-2998 colon = system: HCC-2998 colon
CCRF-CEM leukemia = system: CCRF-CEM leukemia
SR leukemia = system: SR leukemia
A549 NSCLC = system: A549 NSCLC
HCT-116 colon = system: HCT-116 colon
OVCAR-4 ovarian = system: OVCAR-4 ovarian
MDA-N = system: MDA-N

O=C(CN1CCN(c2ccccc2)CC1)N1CCN(c2nnc(-c3ccc(Cl)cc3)c(-c3ccc(Cl)cc3)n2)CC1
40.8 µM: TGI (IGROV1 ovarian)
42.2 µM: TGI (SK-MEL-2 melanoma)
6.62 µM: TGI (SR leukemia)
75.9 µM: TGI (HOP-62 NSCLC)
inactive: GI50 (SK-OV-3 ovarian) > 100 µM | GI50 (OVCAR-3 ovarian) 7.24 µM | GI50 (OVCAR-5 ovarian) > 100 µM | GI50 (LOX IMVI melanoma) 11.5 µM | GI50 (NCI-H522 lung) 10.7 µM | GI50 (HOP-62 NSCLC) 20.5 µM | GI50 (MDA-MB-231 breast) 21.9 µM | GI50 (DU-145 prostate) 29.2 µM | GI50 (SF-539 CNS) 5.91 µM | GI50 (NCI-H460 lung) 7.92 µM | GI50 (786-0 renal) 11.6 µM | GI50 (MALME-3M melanoma) 9.35 µM | GI50 (HOP-92 NSCLC) 12.1 µM | GI50 (HT29 colon) 4.04 µM | GI50 (NCI-H23 lung) 23.4 µM | GI50 (SF-268 CNS) 14.9 µM | GI50 (COLO 205 colon) 3.61 µM | GI50 (PC-3 prostate) 7.44 µM | GI50 (RPMI-8226 leukemia) 3.88 µM | GI50 (UO-31 renal) 2.04 µM | GI50 (U251 CNS) 8.16 µM | GI50 (UACC-62 melanoma) 15.9 µM | GI50 (MDA-MB-435) 13.7 µM | GI50 (A498 renal) 9.67 µM | GI50 (IGROV1 ovarian) 6.5 µM | GI50 (ACHN renal) 5.59 µM | GI50 (K-562 leukemia) 3.32 µM | GI50 (HS 578T breast) 16.5 µM | GI50 (SW-620 colon) 16.1 µM | GI50 (RXF 393 renal) 9.41 µM | GI50 (SK-MEL-28 melanoma) 56.2 µM | GI50 (SNB-75 CNS) 14 µM | GI50 (MOLT-4 leukemia) 1.63 µM | GI50 (SK-MEL-5 melanoma) 6.03 µM | GI50 (HCT-15 colon) 6.35 µM | GI50 (NCI-H226 lung) > 100 µM | GI50 (M14 melanoma) 9.99 µM | GI50 (SNB-19 CNS) 37.2 µM | GI50 (EKVX NSCLC) 21.6 µM | GI50 (KM12 colon) 5.4 µM | GI50 (SF-295 CNS) 36 µM | GI50 (SK-MEL-2 melanoma) 12.4 µM | GI50 (MCF7 breast) 3.08 µM | GI50 (HL-60(TB) leukemia) 3.16 µM | GI50 (SN12C renal) 13 µM | GI50 (NCI/ADR-RES ovarian) 8.05 µM | GI50 (UACC-257 melanoma) 14.7 µM | GI50 (T-47D breast) 3.51 µM | GI50 (OVCAR-8 ovarian) 16.3 µM | GI50 (TK-10 renal) 5.97 µM | GI50 (BT-549 breast) 4.34 µM | GI50 (CAKI-1 renal) 13.5 µM | GI50 (HCC-2998 colon) 16.9 µM | GI50 (CCRF-CEM leukemia) 8.08 µM | GI50 (SR leukemia) 1.7 µM | GI50 (A549 NSCLC) 9.86 µM | GI50 (HCT-116 colon) 4.26 µM | GI50 (OVCAR-4 ovarian) 11 µM
9.97 µM: TGI (MOLT-4 leukemia)
66.6 µM: TGI (NCI-H522 lung)
16.2 µM: TGI (HCT-116 colon)
> 100 µM: TGI (SK-OV-3 ovarian) | TGI (OVCAR-5 ovarian) | TGI (MDA-MB-231 breast) | TGI (DU-145 prostate) | TGI (SF-539 CNS) | TGI (NCI-H460 lung) | TGI (MALME-3M melanoma) | TGI (NCI-H23 lung) | TGI (SF-268 CNS) | TGI (PC-3 prostate) | TGI (UO-31 renal) | TGI (UACC-62 melanoma) | TGI (MDA-MB-435) | TGI (ACHN renal) | TGI (K-562 leukemia) | TGI (HS 578T breast) | TGI (SW-620 colon) | TGI (SK-MEL-28 melanoma) | TGI (HCT-15 colon) | TGI (NCI-H226 lung) | TGI (M14 melanoma) | TGI (SNB-19 CNS) | TGI (EKVX NSCLC) | TGI (KM12 colon) | TGI (SF-295 CNS) | TGI (SN12C renal) | TGI (NCI/ADR-RES ovarian) | TGI (UACC-257 melanoma) | TGI (OVCAR-8 ovarian) | TGI (TK-10 renal) | TGI (CAKI-1 renal) | TGI (HCC-2998 colon) | TGI (CCRF-CEM leukemia) | TGI (A549 NSCLC) | TGI (OVCAR-4 ovarian)
41.3 µM: TGI (OVCAR-3 ovarian)
19.4 µM: TGI (HL-60(TB) leukemia)
28.9 µM: TGI (T-47D breast)
20 µM: TGI (RPMI-8226 leukemia)
41.4 µM: TGI (LOX IMVI melanoma)
63.3 µM: TGI (RXF 393 renal)
78 µM: TGI (A498 renal)
29.6 µM: TGI (SK-MEL-5 melanoma)
53 µM: TGI (786-0 renal)
27.9 µM: TGI (HOP-92 NSCLC)
63.6 µM: TGI (BT-549 breast)
27.7 µM: TGI (COLO 205 colon)
71.1 µM: TGI (SNB-75 CNS)
19.6 µM: TGI (MCF7 breast)
31 µM: TGI (U251 CNS)
24 µM: TGI (HT29 colon)

CCOP(=O)(CN=C(c1ccccc1)c1ccccc1)OCC
> 100 µM: TGI (SK-OV-3 ovarian) | TGI (OVCAR-3 ovarian) | TGI (OVCAR-5 ovarian) | TGI (MDA-N) | TGI (LOX IMVI melanoma) | TGI (NCI-H522 lung) | TGI (HOP-62 NSCLC) | TGI (MDA-MB-231 breast) | TGI (DU-145 prostate) | TGI (NCI-H460 lung) | TGI (HOP-92 NSCLC) | TGI (HT29 colon) | TGI (NCI-H23 lung) | TGI (COLO 205 colon) | TGI (PC-3 prostate) | TGI (RPMI-8226 leukemia) | TGI (UO-31 renal) | TGI (U251 CNS) | TGI (MDA-MB-435) | TGI (A498 renal) | TGI (IGROV1 ovarian) | TGI (ACHN renal) | TGI (K-562 leukemia) | TGI (HS 578T breast) | TGI (SW-620 colon) | TGI (SK-MEL-28 melanoma) | TGI (SNB-75 CNS) | TGI (MOLT-4 leukemia) | TGI (SK-MEL-5 melanoma) | TGI (HCT-15 colon) | TGI (NCI-H226 lung) | TGI (M14 melanoma) | TGI (SNB-19 CNS) | TGI (SF-295 CNS) | TGI (SK-MEL-2 melanoma) | TGI (MCF7 breast) | TGI (HL-60(TB) leukemia) | TGI (SN12C renal) | TGI (NCI/ADR-RES ovarian) | TGI (UACC-257 melanoma) | TGI (T-47D breast) | TGI (OVCAR-8 ovarian) | TGI (TK-10 renal) | TGI (CAKI-1 renal) | TGI (HCC-2998 colon) | TGI (CCRF-CEM leukemia) | TGI (SR leukemia) | TGI (A549 NSCLC) | TGI (HCT-116 colon) | TGI (OVCAR-4 ovarian)

CC(C)C/C=C/C1=NN(c2cccc(S(=O)(=O)O)c2)C2(C1)SCC(=O)N2c1nc2ccccc2s1 (stereo not given)
70 µM: TGI (LOX IMVI melanoma)
49.6 µM: TGI (RPMI-8226 leukemia)
82 µM: TGI (HL-60(TB) leukemia)
84.6 µM: TGI (MDA-MB-435)
64.4 µM: TGI (CCRF-CEM leukemia)
74.5 µM: TGI (SR leukemia)
88.2 µM: TGI (A498 renal)
60.2 µM: TGI (NCI-H522 lung)
47.2 µM: TGI (T-47D breast)
> 100 µM: TGI (OVCAR-5 ovarian) | TGI (MDA-MB-231 breast) | TGI (DU-145 prostate) | TGI (SF-539 CNS) | TGI (NCI-H460 lung) | TGI (MALME-3M melanoma) | TGI (HOP-92 NSCLC) | TGI (HT29 colon) | TGI (NCI-H23 lung) | TGI (SF-268 CNS) | TGI (COLO 205 colon) | TGI (PC-3 prostate) | TGI (UO-31 renal) | TGI (U251 CNS) | TGI (UACC-62 melanoma) | TGI (IGROV1 ovarian) | TGI (ACHN renal) | TGI (K-562 leukemia) | TGI (HS 578T breast) | TGI (SW-620 colon) | TGI (RXF 393 renal) | TGI (SK-MEL-28 melanoma) | TGI (SNB-75 CNS) | TGI (MOLT-4 leukemia) | TGI (SK-MEL-5 melanoma) | TGI (HCT-15 colon) | TGI (NCI-H226 lung) | TGI (M14 melanoma) | TGI (SNB-19 CNS) | TGI (EKVX NSCLC) | TGI (KM12 colon) | TGI (SK-MEL-2 melanoma) | TGI (MCF7 breast) | TGI (SN12C renal) | TGI (NCI/ADR-RES ovarian) | TGI (UACC-257 melanoma) | TGI (OVCAR-8 ovarian) | TGI (TK-10 renal) | TGI (BT-549 breast) | TGI (CAKI-1 renal) | TGI (HCC-2998 colon) | TGI (A549 NSCLC) | TGI (HCT-116 colon) | TGI (OVCAR-4 ovarian)
46.3 µM: TGI (786-0 renal)
